Measurements: the NIST ThermoML archive (doi:10.1021/je900974u)

Columns and labels:
[1] = molar heat capacity at constant pressure; details: 101.33 kPa, Liquid, Vacuum adiabatic calorimetry
[2] = Crystal
[3] = Molar enthalpy of transition or fusion; details: Crystal; Adiabatic calorimetry

CCCC[N+](C)(C)C.O=S(=O)([N-]S(=O)(=O)C(F)(F)F)C(F)(F)F [butyltrimethylammonium bis(trifluoromethylsulfonyl)imide]
[1]
Details	molar heat capacity at constant pressure [J/K/mol]
278.32 K	547.5
280.19 K	548.7
282.06 K	549.7
283.93 K	550.8
285.8 K	551.9
287.67 K	553
289.54 K	554.1
291.42 K	555.3
293.29 K	556.4
293.87 K	557
295.16 K	557.4
297.04 K	558.4
298 K	559.2
298.91 K	559.5
300.04 K	560.4
302.07 K	561.1
304.14 K	563.3
306.21 K	563.9
308.28 K	565.4
310.35 K	566.5
312.42 K	568.2
314.49 K	569.1
316.55 K	570.3
318.6 K	571.4
320.67 K	573.2
322.73 K	575.1
324.8 K	575
326.86 K	576.5
328.92 K	577.2
330.98 K	578.5
333.04 K	580.6
335.09 K	581.5
337.15 K	582.9
339.2 K	584.1
341.26 K	585.7
343.31 K	586.6
345.36 K	587.7
347.41 K	588.6
349.46 K	590.1
351.49 K	591.1
353.54 K	592.1
355.59 K	593.4
357.65 K	594.8
359.7 K	596
361.76 K	597.4
363.81 K	598.5
365.87 K	599.8
367.93 K	600.9

Details	Molar enthalpy of transition or fusion [kcal/mol]	Triple point temperature [K]
[2]	–	290.23
[3]	2.725	–
